Experimental data reported in patent publication US12528818B2, “Compositions and methods for inhibition of RAS” (Leidos Biomedical Research, Inc., priority 2021, dated 2026).

These molecules were tested on pERK in NCI-H358 cells (assay: Cell-based pERK HTRF assay (pERK inhibition in H358 cells)). Conditions: Homo sapiens, NCI-H358, 0.5 h, pERK inhibition IC50, NCI-H358 cells, 30 min incubation; read-out: PERK in H358 cell.
Description: On Day 1, cells (NCI-H358) were seeded into 96-well plates at 4×10^4 cells/well in complete growth media (RPMI, 10% FBS).
The source plate was created with compounds diluted in media at 5-fold the final assay concentration. […] 20 μL was transferred onto the cell plates (final volume in wells was 100 μL). Plates were harvested after 30 min incubation by aspirating media and adding kit-supplied 1× supplemented lysis buffer to all wells (75 μl per well). Plates were then placed on a plate shaker and incubated at 850 rpm for an additional 30 min.
Antibody mixture solution was prepared by diluting aliquoted d2 and Eu Cryptate antibodies 1:20 in kit supplied detection buffer, then mixed the diluted antibodies solutions (1:1 v:v).
Samples were homogenized by pipetting up and down and then transferred (16 μL of cell lysates) from the 96-well cell culture plate to two wells of the HTRF 384-well detection plate containing the antibody solution. Plates were centrifuged (524 g for 1 min) and allowed to incubate between 4 and 24 h at room temperature. Maximum signal is reached after 4 h incubation time and remains stable over a period of 24 hours. Therefore, readings can be made between 4 and 24 h of incubation.
For C=CC(=O)N1CC[C@@H](N(C)c2nc(OC[C@@H]3C[C@@H](F)CN3C)nc3c(F)c(-c4ccc(F)c5sc(N)nc45)c(C(F)(F)F)cc23)C1 (atropisomer, axis not shown) [Compound 231], the IC50 was 100 to 1000 nM. In the case of C=CC(=O)N1CC[C@@H](N(C)c2c(C#N)c(OC[C@@]34CCCN3C[C@H](F)C4)nc3c(F)c(-c4ccc(F)c5sc(N)nc45)c(Cl)cc23)C1 (atropisomer, axis not shown) [Compound 234], the IC50 is reported as > 1000 nM. In the case of C=CC(=O)N1CCC[C@@H](N(C)c2nc(OC[C@@]34CCCN3C[C@H](F)C4)nc3c(F)c(-c4ccc(F)c5sc(N)nc45)c(Cl)cc23)C1 (atropisomer, axis not shown) [Compound 241], the IC50 is reported as < 100 nM. In the case of C=CC(=O)N1CC[C@@H](N(C)c2nc(OC[C@@H]3CC4(CC4)CN3C)nc3c(F)c(-c4ccc(F)c5sc(N)nc45)c(C(F)(F)F)cc23)C1 (atropisomer, axis not shown) [Compound 255], the IC50 is reported as < 100 nM. In the case of C=CC(=O)N1C[C@H](N(C)c2ncnc3c(F)c(-c4ccc(F)c5sc(N)nc45)c(C(F)(F)F)cc23)C2(CC2)C1 (atropisomer, axis not shown) [Compound 263], the IC50 is reported as > 1000 nM. C=CC(=O)N1CC[C@@H](N(C)c2nc(OC[C@]34CCCN3C[C@H](OC)C4)nc3c(F)c(-c4ccc(F)c5sc(N)nc45)c(C(F)(F)F)cc23)C1 (atropisomer, axis not shown) [Compound 277] was tested, and the IC50 was < 100 nM. With C=CC(=O)N1C[C@H](C)N(c2nc(OC[C@@]34CCCN3C[C@H](OC)C4)nc3c(F)c(-c4ccc(F)c5sc(N)nc45)c(C(F)(F)F)cc23)C[C@H]1C (atropisomer, axis not shown) [Compound 289] the IC50 was < 100 nM. With C=CC(=O)N1[C@@H](C)CN(c2nc(OC[C@@]34CCCN3C[C@H](OC)C4)nc3c(F)c(-c4ccc(F)c5sc(N)c(C#N)c45)c(C(F)(F)F)cc23)C[C@@H]1C (atropisomer, axis not shown) [Compound 364] the IC50 was < 100 nM. For C=CC(=O)N1CC[C@H](N(C)c2nc(OC[C@@]34CCCN3C[C@H](F)C4)nc3c(F)c(-c4ccc(F)c5sc(N)c(C#N)c45)c(Cl)cc23)[C@@H]1C (atropisomer, axis not shown) [Compound 467], the IC50 was < 100 nM. For C=CC(=O)N1CC[C@@H](N(C)c2nc(OC[C@@]34CCCN3C[C@H](F)C4)nc3c(F)c(-c4ccc(F)c5sc(N)nc45)c(C(F)(F)F)cc23)C1 (single isomer, unassigned) [Compound 239], the IC50 was < 100 nM. For C=CC(=O)N1CC[C@@H](N(C)c2nc(OC[C@@]34CCCN3C[C@H](F)C4)nc3c(Cl)c(-c4ccc(F)c5sc(N)nc45)c(C(F)(F)F)cc23)C1 (single isomer, unassigned) [Compound 302], the IC50 was < 100 nM. For C=CC(=O)N1C[C@H](C)N(c2nc(OC[C@@]34CCCN3C[C@H](F)C4)nc3c(F)c(-c4ccc(F)c5sc(N)c(C#N)c45)c(C(F)(F)F)cc23)C[C@H]1C (single isomer, unassigned) [Compound 313], the IC50 was < 100 nM.

Same assay, conditions: pERK inhibition IC50, NCI-H358 cells, 30 min incubation; read-out: PERK in H358 cell
C=CC(=O)N1CC[C@@H](N(C)c2nc(OCC34CCCN3CCC4)nc3c(F)c(-c4ccc(F)c5sc(N)nc45)c(C(F)(F)F)cc23)C1 (atropisomer, axis not shown) [Compound 221] was tested, and the IC50 was > 1000 nM. For C=CC(=O)N1CC[C@@H](N(C)c2nc(OCC34CCCN3CCC4)nc3c(F)c(-c4ccc(F)c5sc(N)nc45)c(C(F)(F)F)cc23)C1 (atropisomer, axis not shown) [Compound 222], the IC50 was 100 to 1000 nM. With C=CC(=O)N1CC[C@@H](N(C)c2nc(OC[C@@H]3CC(F)(F)CN3C)nc3c(F)c(-c4ccc(F)c5sc(N)nc45)c(C(F)(F)F)cc23)C1 (atropisomer, axis not shown) [Compound 228] the IC50 was < 100 nM. C=CC(=O)N1CC[C@@H](N(C)c2nc(OC[C@@H]3CC(F)(F)CN3C)nc3c(F)c(-c4ccc(F)c5sc(N)nc45)c(C(F)(F)F)cc23)C1 (atropisomer, axis not shown) [Compound 229] was tested, and the IC50 was > 1000 nM. C=CC(=O)N1CC[C@@H](N(C)c2nc(OC[C@@H]3C[C@@H](F)CN3C)nc3c(F)c(-c4ccc(F)c5sc(N)nc45)c(C(F)(F)F)cc23)C1 (atropisomer, axis not shown) [Compound 232] was tested, and the IC50 was 100 to 1000 nM. C=CC(=O)N1CCC[C@@H](N(C)c2nc(OC[C@@]34CCCN3C[C@H](F)C4)nc3c(F)c(-c4ccc(F)c5sc(N)nc45)c(Cl)cc23)C1 (atropisomer, axis not shown) [Compound 242] showed an IC50 of 100 to 1000 nM. For C=CC(=O)N1C[C@H](N(C)c2ncnc3c(F)c(-c4ccc(F)c5sc(N)nc45)c(C(F)(F)F)cc23)C[C@H]1C (atropisomer, axis not shown) [Compound 250], the IC50 was 100 to 1000 nM. C=CC(=O)N1C[C@H](N(C)c2ncnc3c(F)c(-c4ccc(F)c5sc(N)nc45)c(C(F)(F)F)cc23)C[C@H]1C (atropisomer, axis not shown) [Compound 251] was tested, and the IC50 was > 1000 nM. C=CC(=O)N1CC[C@@H](N(C)c2nc(OC[C@@H]3CC4(CC4)CN3C)nc3c(F)c(-c4ccc(F)c5sc(N)nc45)c(C(F)(F)F)cc23)C1 (atropisomer, axis not shown) [Compound 256] was tested, and the IC50 was < 100 nM. With C=CC(=O)N1C[C@H](N(C)c2ncnc3c(F)c(-c4ccc(F)c5sc(N)nc45)c(C(F)(F)F)cc23)C2(CC2)C1 (atropisomer, axis not shown) [Compound 264] the IC50 was > 1000 nM. For C=CC(=O)N1C[C@H](C)N(c2nc(OC[C@@]34CCCN3C[C@H](F)C4)nc3c(F)c(-c4ccc(F)c5sc(N)nc45)c(C(F)(F)F)cc23)C[C@H]1C (atropisomer, axis not shown) [Compound 267], the IC50 was < 100 nM. For C=CC(=O)N1C[C@H](C)N(c2nc(OC[C@@]34CCCN3C[C@H](F)C4)nc3c(F)c(-c4ccc(F)c5sc(N)nc45)c(C(F)(F)F)cc23)C[C@H]1C (atropisomer, axis not shown) [Compound 268], the IC50 was < 100 nM. C=CC(=O)N1CC[C@@H](N(C)c2nc(OC[C@]34CCCN3C[C@H](OC)C4)nc3c(F)c(-c4ccc(F)c5sc(N)nc45)c(C(F)(F)F)cc23)C1 (atropisomer, axis not shown) [Compound 278] showed an IC50 of 100 to 1000 nM. In the case of C=CC(=O)N1CC[C@@H](N(c2nc(OC[C@@]34CCCN3C[C@H](F)C4)nc3c(F)c(-c4ccc(F)c5sc(N)nc45)c(C(F)(F)F)cc23)C2CC2)C1 (single isomer, unassigned) [Compound 236], the IC50 is reported as < 100 nM. With C=CC(=O)N1CC[C@@H](N(c2nc(OC[C@@]34CCCN3C[C@H](F)C4)nc3c(F)c(-c4ccc(F)c5sc(N)nc45)c(C(F)(F)F)cc23)C2CC2)C1 (single isomer, unassigned) [Compound 237] the IC50 was > 1000 nM. In the case of C=CC(=O)N1CC[C@@H](N(C)c2nc(OC[C@@]34CCCN3C[C@H](F)C4)nc3c(F)c(-c4ccc(F)c5sc(N)nc45)c(C(F)(F)F)cc23)C1 (single isomer, unassigned) [Compound 240], the IC50 is reported as 100 to 1000 nM. In the case of C=CC(=O)N1CC[C@@H](Nc2nc(OC[C@@]34CCCN3C[C@H](F)C4)nc3c(F)c(-c4ccc(F)c5sc(N)nc45)c(C(F)(F)F)cc23)C1 (single isomer, unassigned) [Compound 271], the IC50 is reported as < 100 nM. With C=CC(=O)N1CC[C@@H](Nc2nc(OC[C@@]34CCCN3C[C@H](F)C4)nc3c(F)c(-c4ccc(F)c5sc(N)nc45)c(C(F)(F)F)cc23)C1 (single isomer, unassigned) [Compound 272] the IC50 was > 1000 nM. In the case of C=CC(=O)N1CC[C@@H](N(C)c2nc(OC[C@@]34CCCN3C[C@H](F)C4)nc3c(Cl)c(-c4ccc(F)c5sc(N)nc45)c(C(F)(F)F)cc23)C1 (single isomer, unassigned) [Compound 303], the IC50 is reported as 100 to 1000 nM.
